Measured values as given in PubChem BioAssay (NCI).
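Results reflect a 48-hour exposure of cells in 96-well plates to compound at five concentrations. GI50 = concentration required for 50% inhibition of growth. TGI marks complete inhibition of growth.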

Key:
Test in all cases: NCI tumour cell line growth inhibition, 48 h
[1] = system: NCI-H522 lung
[2] = system: HCT-116 colon
[3] = system: MCF7 breast
[4] = system: NCI-H226 lung
[5] = system: KM12 colon
[6] = system: RPMI-8226 leukemia
[7] = system: MOLT-4 leukemia
[8] = system: OVCAR-5 ovarian
[9] = system: HOP-92 NSCLC
[10] = system: A498 renal
[11] = system: HCC-2998 colon
[12] = system: MDA-MB-435
[13] = system: SW-620 colon
[14] = system: SF-295 CNS
[15] = system: UACC-62 melanoma
[16] = system: SF-268 CNS
[17] = system: BT-549 breast
[18] = system: 786-0 renal
[19] = system: A549 NSCLC
[20] = system: T-47D breast
[21] = system: CCRF-CEM leukemia
[22] = system: OVCAR-4 ovarian
[23] = system: U251 CNS
[24] = system: SF-539 CNS
[25] = system: UACC-257 melanoma
[26] = system: SK-MEL-5 melanoma
[27] = system: SK-MEL-28 melanoma
[28] = system: SN12C renal
[29] = system: DU-145 prostate
[30] = system: OVCAR-8 ovarian
[31] = system: TK-10 renal
[32] = system: EKVX NSCLC
[33] = system: SK-OV-3 ovarian
[34] = system: CAKI-1 renal
[35] = system: SNB-19 CNS
[36] = system: PC-3 prostate
[37] = system: ACHN renal
[38] = system: HOP-62 NSCLC
[39] = system: HL-60(TB) leukemia
[40] = system: UO-31 renal
[41] = system: SNB-75 CNS
[42] = system: SK-MEL-2 melanoma
[43] = system: COLO 205 colon
[44] = system: NCI/ADR-RES ovarian
[45] = system: K-562 leukemia
[46] = system: MDA-MB-231 breast
[47] = system: SR leukemia
[48] = system: RXF 393 renal
[49] = system: LOX IMVI melanoma
[50] = system: NCI-H460 lung
[51] = system: HT29 colon
[52] = system: HCT-15 colon
[53] = system: IGROV1 ovarian
[54] = system: HS 578T breast
[55] = system: OVCAR-3 ovarian
[56] = system: MALME-3M melanoma
[57] = system: M14 melanoma
[58] = system: NCI-H23 lung

## CN1C(=O)N(c2ccccc2)C2N=C(N/N=C/c3ccccc3)SC21 (stereo unspecified)
[1]
  GI50: 304 nM
  TGI: 1580 nM
[2]
  GI50: 710 nM
  TGI: > 100000 nM
[3]
  GI50: 456 nM
  TGI: > 100000 nM
[4]
  GI50: 2280 nM
  TGI: 66600 nM
[5]
  GI50: 819 nM
  TGI: > 100000 nM
[6]
  GI50: 3240 nM
  TGI: > 100000 nM
[7]
  GI50: 2380 nM
  TGI: > 100000 nM
[8]
  GI50: 4220 nM
  TGI: > 100000 nM
[9]
  GI50: 648 nM
  TGI: > 100000 nM
[10]
  GI50: > 100000 nM
  TGI: > 100000 nM
[11]
  GI50: 2250 nM
  TGI: 53200 nM
[12]
  GI50: 203 nM
  TGI: 508 nM
[13]
  GI50: 659 nM
  TGI: > 100000 nM
[14]
  GI50: 622 nM
  TGI: > 100000 nM
[15]
  GI50: 577 nM
  TGI: > 100000 nM
[16]
  GI50: 5490 nM
  TGI: > 100000 nM
[17]
  GI50: 885 nM
  TGI: 13700 nM
[18]
  GI50: 4210 nM
  TGI: > 100000 nM
[19]
  GI50: 2480 nM
  TGI: > 100000 nM
[20]
  GI50: 2930 nM
  TGI: > 100000 nM
[21]
  GI50: 1930 nM
  TGI: > 100000 nM
[22]
  GI50: 14500 nM
  TGI: > 100000 nM
[23]
  GI50: 1830 nM
  TGI: > 100000 nM
[24]
  GI50: 1340 nM
  TGI: 7910 nM
[25]
  GI50: 28700 nM
  TGI: > 100000 nM
[26]
  GI50: 6050 nM
  TGI: 67500 nM
[27]
  GI50: 16800 nM
  TGI: > 100000 nM
[28]
  GI50: 4460 nM
  TGI: > 100000 nM
[29]
  GI50: 3610 nM
  TGI: > 100000 nM
[30]
  GI50: 3560 nM
  TGI: > 100000 nM
[31]
  GI50: > 100000 nM
  TGI: > 100000 nM
[32]
  GI50: 3730 nM
  TGI: > 100000 nM
[33]
  GI50: 2820 nM
  TGI: > 100000 nM
[34]
  GI50: 685 nM
  TGI: > 100000 nM
[35]
  GI50: 3770 nM
  TGI: > 100000 nM
[36]
  GI50: 1590 nM
  TGI: > 100000 nM
[37]
  GI50: 5190 nM
  TGI: > 100000 nM
[38]
  GI50: 2500 nM
  TGI: > 100000 nM
[39]
  GI50: 452 nM
  TGI: 6580 nM
[40]
  GI50: 3180 nM
  TGI: > 100000 nM
[41]
  GI50: 363 nM
  TGI: 7700 nM
[42]
  GI50: 1100 nM
  TGI: > 100000 nM
[43]
  GI50: 1520 nM
  TGI: 5160 nM
[44]
  GI50: 1050 nM
  TGI: > 100000 nM
[45]
  GI50: 447 nM
  TGI: > 100000 nM
[46]
  GI50: 3620 nM
  TGI: 82600 nM
[47]
  GI50: 380 nM
  TGI: > 100000 nM
[48]
  GI50: 873 nM
  TGI: 3160 nM
[49]
  GI50: 931 nM
  TGI: > 100000 nM
[50]
  GI50: 1040 nM
  TGI: 19900 nM
[51]
  GI50: 935 nM
  TGI: 8040 nM
[52]
  GI50: 553 nM
  TGI: > 100000 nM
[53]
  GI50: 3860 nM
  TGI: > 100000 nM
[54]
  GI50: 1700 nM
  TGI: > 100000 nM
[55]
  GI50: 556 nM
  TGI: > 100000 nM

## CN(C)CCNc1ccc2ncc(C#Cc3cncc(C(=O)Nc4ccc(CN5CCN(C)CC5)c(C(F)(F)F)c4)c3)n2n1
[1]
  GI50: 652 nM
  TGI: 1440 nM
[2]
  GI50: 247 nM
  TGI: 1500 nM
[3]
  GI50: 154 nM
  TGI: 1030 nM
[4]
  GI50: 483 nM
  TGI: 3050 nM
[5]
  GI50: 76.5 nM
  TGI: 918 nM
[6]
  GI50: 1150 nM
  TGI: 2900 nM
[7]
  GI50: 226 nM
  TGI: 3420 nM
[8]
  GI50: 1330 nM
  TGI: 5380 nM
[9]
  GI50: 181 nM
  TGI: 1850 nM
[10]
  GI50: 3100 nM
  TGI: 9700 nM
[56]
  GI50: 672 nM
  TGI: 1620 nM
[11]
  GI50: 953 nM
  TGI: 2650 nM
[12]
  GI50: 746 nM
  TGI: 4510 nM
[13]
  GI50: 589 nM
  TGI: 2240 nM
[14]
  GI50: 1150 nM
  TGI: 7230 nM
[15]
  GI50: 1770 nM
  TGI: 7870 nM
[16]
  GI50: 644 nM
  TGI: 1470 nM
[17]
  GI50: 987 nM
  TGI: 1950 nM
[18]
  GI50: 1040 nM
  TGI: 2460 nM
[19]
  GI50: 936 nM
  TGI: 5460 nM
[57]
  GI50: 1010 nM
  TGI: 3430 nM
[20]
  GI50: 1810 nM
  TGI: 9350 nM
[21]
  GI50: 28.4 nM
  TGI: 5170 nM
[22]
  GI50: 743 nM
  TGI: 2390 nM
[23]
  GI50: 734 nM
  TGI: 1890 nM
[24]
  GI50: 205 nM
  TGI: 862 nM
[25]
  GI50: 4290 nM
  TGI: 11100 nM
[26]
  GI50: 6000 nM
  TGI: 12500 nM
[27]
  GI50: 5740 nM
  TGI: 12000 nM
[28]
  GI50: 774 nM
  TGI: 2770 nM
[29]
  GI50: 1000 nM
  TGI: 4180 nM
[30]
  GI50: 672 nM
  TGI: 2840 nM
[31]
  GI50: 1470 nM
  TGI: 4360 nM
[32]
  GI50: 1530 nM
  TGI: 5540 nM
[33]
  GI50: 2690 nM
  TGI: 9930 nM
[34]
  GI50: 713 nM
  TGI: 3660 nM
[58]
  GI50: 764 nM
  TGI: 1830 nM
[35]
  GI50: 950 nM
  TGI: 4010 nM
[36]
  GI50: 664 nM
  TGI: 3470 nM
[37]
  GI50: 1770 nM
  TGI: 6580 nM
[38]
  GI50: 564 nM
  TGI: 2130 nM
[39]
  GI50: 612 nM
  TGI: 1810 nM
[40]
  GI50: 1870 nM
  TGI: 8040 nM
[41]
  GI50: 185 nM
  TGI: 982 nM
[42]
  GI50: 1110 nM
  TGI: 3050 nM
[43]
  GI50: 169 nM
  TGI: 541 nM
[44]
  GI50: 9960 nM
  TGI: 47700 nM
[45]
  GI50: 130 nM
  TGI: 2420 nM
[46]
  GI50: 463 nM
  TGI: 1900 nM
[47]
  GI50: 60.1 nM
  TGI: 1620 nM
[48]
  GI50: 683 nM
  TGI: 1410 nM
[49]
  GI50: 548 nM
  TGI: 1200 nM
[50]
  GI50: 406 nM
  TGI: 1180 nM
[51]
  GI50: 477 nM
  TGI: 1950 nM
[52]
  GI50: 1570 nM
  TGI: 6000 nM
[53]
  GI50: 955 nM
  TGI: 3980 nM
[54]
  GI50: 450 nM
  TGI: 1920 nM
[55]
  GI50: 844 nM
  TGI: 2950 nM
